A short description of data set [1]: LX-2 cell survival, sulforhodamine B (SRB) assay. Particulars: human, LX-2 cells. Format: cell-based. On the procedure: LX-2 cell survival was measured by sulforhodamine B (SRB) assay. The cells were seeded in 96-well plates at the density of 2 × 10^4/well and cultured in DMEM/GlutaMAX I medium with 10% fetal bovine serum (FBS) with 5% CO2, 37 °C. The cells were treated by the aloperine derivates for 24 h, washed by PBS for three times. Then the cells were fixed with 10% (wt/vol) trichloroacetic acid for 1 h and stained with SRB for 0.5 h. Subsequently, the protein-bound dye was dissolved in 10 mM Tris base solution after removing excess SRB dye washing repeatedly with 1% (vol/vol) acetic acid, the optical density (OD) was determined at 510 nm with a microplate reader.
Background: The SRB assay estimates cell density from bound dye.

The target in the next data set is T1, luciferase (Photinus pyralis, UniProt P08659, K549A/L550V/N119G/N50D/S548I).
T1 construct: expressed in transfected cells; host or cells: human hepatic stellate LX-2 cells transfected with pGL4.17-COL1A1P; lysate used
T1 sequence (P08659 whole entry N50D/N119G/S548I/K549A/L550V): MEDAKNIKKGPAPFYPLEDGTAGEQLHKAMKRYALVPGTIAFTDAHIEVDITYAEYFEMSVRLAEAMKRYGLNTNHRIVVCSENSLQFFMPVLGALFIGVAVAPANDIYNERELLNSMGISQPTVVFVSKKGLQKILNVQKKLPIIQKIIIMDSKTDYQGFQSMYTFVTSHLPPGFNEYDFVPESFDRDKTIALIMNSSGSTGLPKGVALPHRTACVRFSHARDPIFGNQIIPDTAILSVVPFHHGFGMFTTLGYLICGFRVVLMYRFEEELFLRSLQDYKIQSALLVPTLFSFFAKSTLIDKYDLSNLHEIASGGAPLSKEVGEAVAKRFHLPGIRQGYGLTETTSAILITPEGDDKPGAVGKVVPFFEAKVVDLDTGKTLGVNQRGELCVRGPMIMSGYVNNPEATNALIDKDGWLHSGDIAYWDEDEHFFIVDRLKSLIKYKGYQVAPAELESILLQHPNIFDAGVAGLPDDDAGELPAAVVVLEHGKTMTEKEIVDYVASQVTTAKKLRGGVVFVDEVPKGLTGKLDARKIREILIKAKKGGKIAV
Description: Acute effect on luciferase activity (cell lysate, 2 h). Format: biochemical. To be noted: 80 μM, 2-h treatment. The protocol: Then, their anti-COL1A1 potencies were verified by testing the half maximal inhibition concentration (IC50) values upon COL1A1 expression expression in LX-2 cells. […] Then, compounds 4i, 4n and 4p with the lower IC50 values were selected as the key compounds for further studies.
(§1) Cells were maintained on Dulbecco’s Modified Eagle’s medium (DMEM), laid on 96-well plate. DMEM medium was supplemented with 10% fetal bovine serum (FBS) at 37 °C humidified atmosphere with 5% CO2. Furthermore, serum-free culture was required until the cells were confluent at 90−95%. 24 h later the cells were treated with a tested compound (40 and 80 μM) for 24 h. The COL1A1 promotor activity was detected by the Bright-Glo luciferase assay system. Alternatively, to test the acute effects of compound on luciferase activity, 24 h later the cells were lysed and the lysate was treated with a tested compound (80 μM) for 2 h, then the luciferase was detected by the Bright-Glo luciferase assay system (Promega, Madison, WI, USA).

For another data set, the system named is COL1A1 promotor. Description: COL1A1 promotor luciferase reporter gene assay in TGF-β1-treated LX-2 cells. Format: cell-based, human. To be noted: for inhibition at 40 µM / inhibition at 80 µM / IC50: Homo sapiens; for inhibition at 40 µM / inhibition at 80 µM: LX-2, 24 h; for inhibition at 40 µM: 24 h with TGF-β1, read-out: Inhibition Percentage 40 μM (inhibition rate of COL1A1 promotor's activity); for inhibition at 80 µM: 24 h with TGF-β1, read-out: Inhibition Percentage 80 μM (inhibition rate of COL1A1 promotor's activity); for IC50: read-out: IC50 (concentration required to inhibit 50% of COL1A1 promotor's activity). On the procedure: A single luciferase reporter gene detection model was applied to evaluate the inhibitory effects of all target compounds on the expression of COL1A1 promotor in human hepatic stellate LX-2 cells at the concentrations of 40 and 80 μM, taking EGCG as the positive control. The LX-2 cell lines were transfected with COL1A1 promotor luciferase plasmid pGL4.17-COL1A1P for 24 h, then simultaneously treated with TGF-β1 and a tested compound for 24 h.
as §1
For orientation: A reporter such as luciferase makes a cellular process visible.

Data set [2] in a line: HepG2 cell survival, MTT assay. Format: cell-based. Particulars: human, HepG2 cells. The protocol:
HepG2 cell survival was measured by MTT assay. HepG2 cells, at density of 6x10^3 cells/well in 96-well culture plates, were incubated with the aloperine derivates at various concentrations until the cells at 50% confluence for 24 h. 20 µL of the MTT (5 mg/mL) solution was added to each plate and incubated with 5% CO2, 37 °C for 4 h. Subsequently, withdrawing the culture supernatant containing MTT, 150 µL DMSO was used for dissolving the formazan crystal. The absorbance was measured using a microplate reader at 570 nm.
In general terms: Tetrazolium assays rely on reduction of a dye to a coloured formazan, in cell work by metabolically active cells.

The test system of the next data set is COL1A1 mRNA. In words: RT-PCR of COL1A1 mRNA in LX-2 cells. Format: cell-based, human. To be noted: 24 h. The protocol:
(§2) In the absence or presence of TGF-β1 (2 ng/mL) treatment, LX-2 cells were treated with key compounds 4n and 4p at concentrations of 6 μM and 12 μM, or 4i at a concentration of 12 μM, respectively.
LX-2 cells were laid on 6-well plate and cultured in DMEM supplemented with 10% fetal bovine serum (FBS) in a 5% CO2 atmosphere at 37 °C. And serum-free culture was required until the cells reached 90−95% confluence. […] Total RNA of the LX-2 cells was isolated using TRIzol reagent, purified using NucleoSpin RNA Clean-up. Reverse transcription was performed with Transcriptor first strand cDNA synthesis kit. Subsequently, the cDNA levels was determined by ABI 7500 Fast Real-Time PCR System using TaqMan probes of COL1A1, TGF-β1, α-SMA, and GAPDH (sequence not disclosed by ABI) and FastStart Universal Probe master mix (Roche, Indianapolis, IN, USA).

Another data set in a line: in vivo. Particulars: both sexes, Kunming, mouse, po. On the procedure:
To evaluate the safety profiles of the key compounds 4i, 4n and 4p, an acute toxicity test was performed in Kunming mice. Compound 4i was given orally in a single-dosing experiment at 100, 300 and 400 mg kg^−1, while 4n at 300, 400, 500 mg kg^−1, and 4p at 200, 400, 500 mg kg^−1. The mice were closely monitored for 7 days.
Male and Female Kunming mice with weight of 20.0 ±1.0 g were obtained from the Institute of Laboratory Animal Science (Beijing, China). Animals wer e cared according to the institutional guidelines of the Institute of Medicinal Biotechnology, CAMS&PUMC (IMB-20190610D3), and fed with regular rodent chow and housed in an air conditioned room. The mice were randomly divided into different groups with four male mice and four female mice each. Each compound was given orally in a single-dosing experiment, the dose of 4i was 100, 300 and 400 mg kg^−1, the dose of 4n was 300, 400, 500 mg kg^−1, the dose of 4p was 200, 400, 500 mg kg^−1 (ddH2O as control). The mice were closely monitored for 7 days. Body weight as well as survival was monitored.

In a further data set the test system is TGFB1 mRNA. In words: RT-PCR of TGFB1 mRNA in LX-2 cells. Format: cell-based, human. Particulars: TGF-β1 (2 ng/mL) stimulation, 12 μM, 24 h. The protocol: as §2
Since the stimulation of TGF-β1 provokes the expression of a series of fibrosis genes, for example COL1A1 and TGFB1 [24, 25], the effects of key compounds on TGF-β1 expression were evaluated by RT-PCR and western blot assays. As shown in Figure 2B and Supplementary Table S1, the expression of TGFB1 mRNA was maintained at a low level, and the addition of a key compound seemed to have little effect on its expression.
LX-2 cells were laid on 6-well plate and cultured in DMEM supplemented with 10% fetal bovine serum (FBS) in a 5% CO2 atmosphere at 37 °C. And serum-free culture was required until the cells reached 90−95% confluence. After 24 h, cells were incubated with […] concentrations of aloperine derivatives in the presence of 2 ng/mL of TGF-β1 for 24 h. Total RNA of the LX-2 cells was isolated using TRIzol reagent, purified using NucleoSpin RNA Clean-up. Reverse transcription was performed with Transcriptor first strand cDNA synthesis kit. Subsequently, the cDNA levels was determined by ABI 7500 Fast Real-Time PCR System using TaqMan probes of COL1A1, TGF-β1, α-SMA, and GAPDH (sequence not disclosed by ABI) and FastStart Universal Probe master mix (Roche, Indianapolis, IN, USA).

`O=C(CN1CCCC2=C[C@H]3C[C@H](CN4CCCC[C@H]34)[C@@H]21)Nc1ccc(-c2cc3ccccc3[nH]2)cc1` [4h, 12N-N′-[4-(1H-Indol-2-yl)phenyl]carbamoylmethyl aloperine] yielded a melting point of 219 to 221 °C. In data set [1], this molecule displayed a CC50 at 24 h of 7.5 ± 0.4 µM. Further, the “Acute effect on luciferase activity” value on luciferase is “minimal inhibition”. Further, in the data set with COL1A1 promotor, the “IC50 (concentration required to inhibit 50% of COL1A1 promotor's activity)” value is “failed to give a dose-dependent inhibition” and the inhibition at 80 µM was 99.9%. Further, the “Inhibition Percentage 40 μM (inhibition rate of COL1A1 promotor's activity)” value with COL1A1 promotor (40 μM, 24 h with TGF-β1) is reported as 100.0 ± 0.0%. Moreover, the inhibition at 40 µM in the data set with COL1A1 promotor (40 μM) is 99.9%. Half-maximal cytotoxicity in data set [2] (CC50 at 24 h) was put at 18 ± 1.9 µM.
Turning to `O=C(CN1CCCC2=C[C@H]3C[C@H](CN4CCCC[C@H]34)[C@@H]21)Nc1cc(Cl)cc(OC(F)(F)F)c1` [4i, 12N-N′-(3-Chloro-5-trifluoromethoxyphenyl)carbamoylmethyl aloperine], the CC50 at 24 h in data set [1] worked out at 19.5 ± 1.8 µM; in data set [2], 22 ± 4.6 µM. Also, the “Acute effect on luciferase activity” value on luciferase is recorded as “minimal inhibition”. For the same molecule, in the data set with COL1A1 promotor (40 μM), the inhibition at 40 µM amounted to 99.9%. Also, the inhibition at 80 µM with COL1A1 promotor worked out at 99.9%. Also, the IC50 in the data set with COL1A1 promotor is 8.4 ± 0.3 µM. Moreover, the “Inhibitory rate of COL1A1 transcription (mRNA)” value in the data set with COL1A1 mRNA (TGF-β1 (2 ng/mL) stimulation, 12 μM) was 97.4%; in the data set with COL1A1 mRNA (absence of TGF-β1, 12 μM), 45%. Also, the LD50 at 7 days in “in vivo” was determined as 100 mg/kg. Further, in the data set with TGFB1 mRNA, the “Inhibitory rate of TGFB1 mRNA expression” value is 75.4%.
`O=C(CNS(=O)(=O)c1cc(C(F)(F)F)cc(C(F)(F)F)c1)N1CCCC2=C[C@H]3C[C@H](CN4CCCC[C@H]34)[C@@H]21` [10g, 12N-N′-(3,5-Ditrifluoromethyl)benzenesulfonylaminoacetyl aloperine] yielded a melting point of 78 to 80 °C. The same molecule gave a CC50 at 24 h in data set [1] of 68.6 ± 11.7 µM. Moreover, the “Acute effect on luciferase activity” value on luciferase is “minimal inhibition”. Further, the inhibition at 40 µM in the data set on COL1A1 promotor (40 μM) worked out at 48.4 ± 24.7%. Moreover, in the data set on COL1A1 promotor, the inhibition at 80 µM was determined as 84 ± 0.5% and the IC50 was 27.6 ± 3 µM. For the same molecule, the CC50 at 24 h in data set [2] was 113 ± 3.4 µM.

For orientation: CC50 means the concentration that lowers cell viability or growth by half. A high value points to lower toxicity to the cells. Usually inhibition stands for the relative decrease from the control value, in per cent. Usually melting point stands for the temperature of the solid-liquid transition. The term LD50 denotes the dose at which mortality reaches 50%. A low value points to greater toxicity.

Source of the values: paper PMC7663597, “Structure–Activity Relationship of Aloperine Derivatives as New Anti–Liver Fibrogenic Agents” (Molecules, 2020).
